Assays:
BCG expressing luxAB = type: cell-based, Mycobacterium bovis bacillus Calmette-Guerin (BCG) Montreal; conditions: 6.3-100 μM
[1] = system: intracellular M. tuberculosis H37Rv in primary human macrophages; type: cell-based, Mycobacterium tuberculosis; conditions: positive control, 0.1 μg/ml, 0.7 μM; 6 days; not shown

Compound | mycobacterial inhibitory capacity (BCG expressing luxAB) | intracellular killing [1]
WKWLKKWIK-OHxTFA [WKWLKKWIKG-OHxTFA] | bacterial killing capacity was overall lower than that of WKWLKKWIKG-NH2xHOAc | 
NNC(=O)c1ccncc1 [Isoniazid] |  | same intracellular killing as 50 μM of NZX

From paper PMC6289163 (Tuberculosis (Edinburgh, Scotland), 2018)
